Experimental data from article PMC6032158, “Structure–Activity Relationship of Piplartine and Synthetic Analogues against Schistosoma mansoni and Cytotoxicity to Mammalian Cells” (International Journal of Molecular Sciences, 2018).

Columns and labels:
[1] = tested on: murine fibroblast (NIH-3T3) cells; assay: MTT cytotoxicity assay in murine fibroblasts; type: cell-based
Experimental: Next, the medium was removed and various concentrations (25–800 µg/mL) of samples reconstituted in 3% DMSO were applied. DMSO (3%) was used as a control. The plates were incubated for 24 h. Next, 15 µL of MTT solution (5 mg/mL in phosphate buffer) was added to each well and the plates were incubated for 2 h. Medium was discarded and 100 µL of DMSO was added to each well. Absorbance was determined using a spectrophotometer with a microplate reader at 595 nm (Molecular Devices Corporation, Sunnyvale, CA, USA).

[2] = tested on: 49-day-old S. mansoni adult worms; assay: In vitro experiments with adult worms of S. mansoni (mortality, motor activity); type: cell-based, Schistosoma mansoni; conditions: for Dead Worms (%) F / Motor Activity Reduction (%) Significant F / Motor Activity Reduction (%) Slight F: female worms; for Dead Worms (%) M / Motor Activity Reduction (%) Significant M / Motor Activity Reduction (%) Slight M: male worms
Experimental: The Belo Horizonte (BH) strain of S. mansoni was maintained in Biomphalaria glabrata snails and Mesocricetus auratus hamsters at the Adolfo Lutz Institute (São Paulo, Brazil) according to standard procedures. Detailed methods for the infection of molluscs and hamsters, as well as for the recovery of parasites, were as described previously. Briefly, the intermediate host snails were exposed to light for approximately 3 h and cercariae of S. mansoni were subsequently harvested. […] All animals were handled in strict accordance with good animal practice as defined by the Animal Use Ethics Committee. The preparations and culture of schistosomes was performed as previously described. Briefly, hamsters were killed 49 days after infection for the recovery of adult schistosomes. Next, fresh adult worm pairs (male and female) were washed and placed in a 24-well culture plate (TPP, St. […] Adult schistosomes were maintained continuously in medium (with or without drugs) for 96 h as described below. In vitro assays in S. mansoni adults were performed with mated males and females. The worm pairs obtained from the infusion hamsters were washed twice with RPMI 1640 medium containing 200 U/mL penicillin, 200 μg/mL streptomycin and 2 μg/mL amphotericin B (Vitrocell, Campinas, Brazil). The mated parasites were then transferred into 24-well cell culture plates (TPP, St. […] Cultures of adult worms were monitored by microscopy or magnifying glass. The effect of the drug was assessed with emphasis on changes in worm motor activity and death of worms as previously described.

[3] = tested on: mouse BALB/cN macrophage (J774A.1) cell line; assay: Cell viability by flow cytometry in macrophages; conditions: 24 h, 25, 100 and 400 µg/mL, vs DMEM control

## O=C(/C=C/c1ccc([N+](=O)[O-])cc1)N(C(=O)NC1CCCCC1)C1CCCCC1 [Compound 6B]
[1]; MTT, 24 h exposure, 25 to 800 µg/mL
  effect on NIH-3T3 cell viability (in words): did not exert significant effects on mammalian cell viability at the tested concentrations
[1]; Mus musculus, NIH3T3, 24 h, decrease in cell viability at the maximum concentration tested (800 μg/mL), NIH-3T3, 24 h
  Emax at 800 µg/mL: < 50%
[2]; 5 µM, 14 h
  Dead Worms (%) F: 0%
  Motor Activity Reduction (%) Significant F: 0%
  Motor Activity Reduction (%) Slight F: 0%
  Dead Worms (%) M: 0%
  Motor Activity Reduction (%) Significant M: 0%
  Motor Activity Reduction (%) Slight M: 0%
[2]; 5 µM, 48 h
  Dead Worms (%) F: 0%
  Motor Activity Reduction (%) Significant F: 0%
  Motor Activity Reduction (%) Slight F: 0%
  Dead Worms (%) M: 0%
  Motor Activity Reduction (%) Significant M: 0%
  Motor Activity Reduction (%) Slight M: 0%
[2]; 5 µM, 72 h
  Dead Worms (%) F: 0%
  Motor Activity Reduction (%) Significant F: 0%
  Motor Activity Reduction (%) Slight F: 0%
  Dead Worms (%) M: 0%
  Motor Activity Reduction (%) Significant M: 0%
  Motor Activity Reduction (%) Slight M: 0%
[2]; 5 µM, 96 h
  Dead Worms (%) F: 0%
  Motor Activity Reduction (%) Significant F: 0%
  Motor Activity Reduction (%) Slight F: 0%
  Dead Worms (%) M: 0%
  Motor Activity Reduction (%) Significant M: 0%
  Motor Activity Reduction (%) Slight M: 0%
[2]; 10 µM, 24 h
  Dead Worms (%) F: 0%
  Motor Activity Reduction (%) Significant F: 0%
  Motor Activity Reduction (%) Slight F: 0%
  Dead Worms (%) M: 0%
  Motor Activity Reduction (%) Significant M: 0%
  Motor Activity Reduction (%) Slight M: 0%
[2]; 10 µM, 48 h
  Dead Worms (%) F: 0%
  Motor Activity Reduction (%) Significant F: 0%
  Motor Activity Reduction (%) Slight F: 0%
  Dead Worms (%) M: 0%
  Motor Activity Reduction (%) Significant M: 0%
  Motor Activity Reduction (%) Slight M: 0%
[2]; 10 µM, 72 h
  Dead Worms (%) F: 0%
  Motor Activity Reduction (%) Significant F: 0%
  Motor Activity Reduction (%) Slight F: 0%
  Dead Worms (%) M: 0%
  Motor Activity Reduction (%) Significant M: 0%
  Motor Activity Reduction (%) Slight M: 0%
[2]; 10 µM, 96 h
  Dead Worms (%) F: 0%
  Motor Activity Reduction (%) Significant F: 0%
  Motor Activity Reduction (%) Slight F: 0%
  Dead Worms (%) M: 0%
  Motor Activity Reduction (%) Significant M: 0%
  Motor Activity Reduction (%) Slight M: 0%
[2]; 25 µM, 24 h
  Dead Worms (%) F: 0%
  Motor Activity Reduction (%) Significant F: 0%
  Motor Activity Reduction (%) Slight F: 0%
  Dead Worms (%) M: 0%
  Motor Activity Reduction (%) Significant M: 0%
  Motor Activity Reduction (%) Slight M: 0%
[2]; 25 µM, 48 h
  Dead Worms (%) F: 0%
  Motor Activity Reduction (%) Significant F: 0%
  Motor Activity Reduction (%) Slight F: 0%
  Dead Worms (%) M: 0%
  Motor Activity Reduction (%) Significant M: 0%
  Motor Activity Reduction (%) Slight M: 0%
[2]; 25 µM, 72 h
  Dead Worms (%) F: 0%
  Motor Activity Reduction (%) Significant F: 0%
  Motor Activity Reduction (%) Slight F: 0%
  Dead Worms (%) M: 0%
  Motor Activity Reduction (%) Significant M: 0%
  Motor Activity Reduction (%) Slight M: 0%
[2]; 25 µM, 96 h
  Dead Worms (%) F: 0%
  Motor Activity Reduction (%) Significant F: 0%
  Motor Activity Reduction (%) Slight F: 0%
  Dead Worms (%) M: 0%
  Motor Activity Reduction (%) Significant M: 0%
  Motor Activity Reduction (%) Slight M: 0%
[2]; 50 µM, 24 h
  Dead Worms (%) F: 0%
  Motor Activity Reduction (%) Significant F: 0%
  Motor Activity Reduction (%) Slight F: 0%
  Dead Worms (%) M: 0%
  Motor Activity Reduction (%) Significant M: 0%
  Motor Activity Reduction (%) Slight M: 0%
[2]; 50 µM, 48 h
  Dead Worms (%) F: 0%
  Motor Activity Reduction (%) Significant F: 0%
  Motor Activity Reduction (%) Slight F: 0%
  Dead Worms (%) M: 0%
  Motor Activity Reduction (%) Significant M: 0%
  Motor Activity Reduction (%) Slight M: 0%
[2]; 50 µM, 72 h
  Dead Worms (%) F: 0%
  Motor Activity Reduction (%) Significant F: 0%
  Motor Activity Reduction (%) Slight F: 0%
  Dead Worms (%) M: 0%
  Motor Activity Reduction (%) Significant M: 0%
  Motor Activity Reduction (%) Slight M: 0%
[2]; 50 µM, 96 h
  Dead Worms (%) F: 0%
  Motor Activity Reduction (%) Significant F: 0%
  Motor Activity Reduction (%) Slight F: 0%
  Dead Worms (%) M: 0%
  Motor Activity Reduction (%) Significant M: 0%
  Motor Activity Reduction (%) Slight M: 0%
[2]; analogues 50, 25, 10 and 5 μM, piplartine 5 and 10 μM, up to 96 h
  activity against S. mansoni adult worms (in words): did not present biological activity against the S. mansoni parasite
[3]
  effect on J774A.1 cell viability (in words): did not reduce cell viability at the same concentrations

## O=C(C1CCCCC1)N1CC(=O)N2CCc3ccccc3C2C1 (stereo not shown) [Praziquantel, praziquantel, reference compound]
[2]; 2 µM, 24 h
  Dead Worms (%) M: 100%
  Motor Activity Reduction (%) Significant M: 100%
  Motor Activity Reduction (%) Slight M: 0%
[2]; 2 µM, 48 h
  Dead Worms (%) M: 100%
  Motor Activity Reduction (%) Significant M: 100%
  Motor Activity Reduction (%) Slight M: 0%
[2]; 2 µM, 72 h
  Dead Worms (%) M: 100%
  Motor Activity Reduction (%) Significant M: 100%
  Motor Activity Reduction (%) Slight M: 0%
[2]; 2 µM, 96 h
  Dead Worms (%) M: 100%
  Motor Activity Reduction (%) Significant M: 100%
  Motor Activity Reduction (%) Slight M: 0%
